Results: patent US10745398B2, “2-(het)aryl-substituted fused heterocycle derivatives as pesticides” (Bayer CropScience Aktiengesellschaft, priority 2015, dated 2020)

How the values were obtained:
[1] = test system: adult houseflies (Musca domestica); experiment: Musca domestica test; format: in vivo; conditions: application rate 100 ppm, after 2 days
Description: (§1) Solvent: dimethyl sulphoxide
(§2) To produce a suitable active compound preparation, 10 mg of active compound are mixed with 0.5 ml of dimethyl sulphoxide, and the concentrate is diluted with water to the desired concentration.
Vessels containing a sponge treated with sugar solution and the active compound preparation of the desired concentration are populated with 10 adult houseflies (Musca domestica).
After 2 days, the kill in % is determined. 100% means that all of the flies have been killed; 0% means that none of the flies have been killed.

[2] = test system: unfed adult cat fleas (Ctenocephalides felis); experiment: Ctenocephalides felis - oral test; format: in vivo; conditions: application rate 100 ppm in citrated cattle blood, after 2 days
Description: as §1
To produce a suitable active compound preparation, 10 mg of active compound are mixed with 0.5 ml of dimethyl sulphoxide. Dilution with citrated cattle blood gives the desired concentration.
About 20 unfed adult cat fleas (Ctenocephalides felis) are placed into a chamber which is closed at the top and bottom with gauze. A metal cylinder whose bottom end is closed with parafilm is placed onto the chamber. The cylinder contains the blood/active compound preparation, which can be imbibed by the fleas through the parafilm membrane.
After 2 days, the kill in % is determined. 100% means that all of the fleas have been killed; 0% means that none of the fleas have been killed.

[3] = test system: L1 larvae of the Australian sheep blowfly (Lucilia cuprina); experiment: Lucilia cuprina test; format: in vivo; conditions: application rate 100 ppm, after 2 days
Description: as §1, §2
About 20 L1 larvae of the Australian sheep blowfly (Lucilia cuprina) are transferred into a test vessel containing minced horsemeat and the active compound preparation of the desired concentration.
After 2 days, the kill in % is determined. 100% means that all the larvae have been killed; 0% means that no larvae have been killed.

[4] = test system: caterpillars of the armyworm (Spodoptera frugiperda); experiment: Spodoptera frugiperda - spray test; format: in vivo; conditions: application rate 500 g/ha, maize leaf discs, after 7 days
Description: (§3) Solvent: 78.0 parts by weight of acetone • • 1.5 parts by weight of dimethylformamide
(§4) Emulsifier: alkylaryl polyglycol ether
(§5) To produce a suitable active compound preparation, 1 part by weight of active compound is dissolved with the stated parts by weight of solvent and made up with water containing an emulsifier concentration of 1000 ppm until the desired concentration is attained. To produce further test concentrations, the preparation is diluted with emulsifier-containing water.
Leaf discs of maize (Zea mays) are sprayed with an active compound preparation of the desired concentration and, after drying, populated with caterpillars of the armyworm (Spodoptera frugiperda).
After 7 days, the efficacy in % is determined. 100% means that all the caterpillars have been killed; 0% means that no caterpillar has been killed.

[5] = log P (neutral) by HPLC on reversed-phase column (C 18), EEC Directive 79/831 Annex V.A8; format: physicochemical; conditions: HPLC reversed-phase C 18, 55° C., neutral range pH 7.8, ammonium hydrogencarbonate/acetonitrile
[6] = test system: engorged adult female cattle ticks (Boophilus microplus); experiment: Boophilus microplus - injection test; format: in vivo; conditions: application rate 20 μg/animal, assessed after 7 days
Description: as §1
To produce a suitable active compound preparation, 10 mg of active compound are mixed with 0.5 ml of solvent and the concentrate is diluted with solvent to the desired concentration.
1 μl of the active compound solution is injected into the abdomen of 5 engorged adult female cattle ticks (Boophilus microplus). The animals are transferred into dishes and kept in a climate-controlled room.
Efficacy is assessed after 7 days by laying of fertile eggs. Eggs which are not visibly fertile are stored in a climate-controlled cabinet until the larvae hatch after about 42 days. An efficacy of 100% means that none of the ticks has laid any fertile eggs; 0% means that all the eggs are fertile.

[7] = test system: larvae of the mustard beetle (Phaedon cochleariae); experiment: Phaedon cochleariae - spray test; format: in vivo; conditions: application rate 500 g/ha, Chinese cabbage leaf discs, after 7 days
Description: as §3, §4, §5
After 7 days, the efficacy in % is determined. 100% means that all the beetle larvae have been killed; 0% means that no beetle larvae have been killed.

[8] = test system: green peach aphid (Myzus persicae); experiment: Myzus persicae - spray test; format: in vivo; conditions: application rate 500 g/ha, Chinese cabbage leaf discs, after 5-6 days
Description: Solvent: 78 parts by weight of acetone • • 1.5 parts by weight of dimethylformamide
as §4, §5
Discs of Chinese cabbage leaves (Brassica pekinensis) infested by all stages of the green peach aphid (Myzus persicae) are sprayed with an active compound preparation of the desired concentration.
After 5-6 days, the efficacy in % is determined. 100% means that all the aphids have been killed; 0% means that no aphids have been killed.

Row | SMILES | efficacy (kill in %) [1] | efficacy (kill in %) [2] | efficacy (kill in %) [3] | efficacy (caterpillars killed) [4] | log P (neutral) [5] | efficacy (no laying of fertile eggs) [6] | efficacy (beetle larvae killed) [7] | chromatographic logP ([5]; reversed-phase HPLC column (C 18)) | efficacy (aphids killed) [8]
1 | CCS(=O)(=O)c1ccc(-n2ncn(-c3ccc(Cl)cc3)c2=O)nc1-c1nc2cc(C(F)(F)F)ncc2n1C [Example I-19] | 80% | 100% | 100% | 100% | Example I-19: logP (neutral): 2.82 1H-NMR(400.0 MHz, d6-DMSO): □ = | 80% | 100% | – | –
2 | CCS(=O)(=O)c1ccc(-n2cc(-c3ncccc3Cl)cn2)nc1-c1nc2cc(C(F)(F)F)ncc2n1C [Example I-7] | – | 100% | 100% | 100% | Example I-7: logP (neutral): 3.66 ^1H-NMR(400.0 MHz, d6-DMSO): δ = | – | 100% | – | –
3 | CCS(=O)(=O)c1ccc(-n2ccc(-c3ccc(Cl)cc3)n2)nc1-c1nc2cc(C(F)(F)F)ncc2n1C [Example I-6] | – | 90% | 100% | 83% | Example I-6: logP (neutral): 4.62 ^1H-NMR(400.0 MHz, d6-DMSO): δ = | – | 100% | – | –
4 | CCS(=O)(=O)c1ccc(-n2ccc(-c3cccc(Cl)c3)n2)nc1-c1nc2cc(C(F)(F)F)ncc2n1C [Example I-23] | – | 100% | 100% | 100% | Example I-23: logP (neutral): 4.64 1H-NMR(400.0 MHz, d6-DMSO): □ = | – | 100% | – | –
5 | CCS(=O)(=O)c1ccc(-n2cnn(-c3ccc(Cl)cc3Cl)c2=O)nc1-c1nc2cc(C(F)(F)F)ncc2n1C [Example I-2, 2-(2,4-Dichlorophenyl)-4-[5-ethylsulfonyl-6-[3-methyl-6-(trifluoromethyl)imidazo[4,5-c]pyridin-2-yl]-2-pyridyl]-1,2,4-triazol-3-one] | 90% | – | 100% | 100% | – | – | 100% | 3.71 | –
6 | CCS(=O)(=O)c1ccc(-c2cnn(-c3ccccc3F)c2)nc1-c1nc2cc(C(F)(F)F)ncc2n1C [Example I-28] | – | 100% | 100% | 100% | Example I-28: logP (neutral): 3.38 1H-NMR(400.0 MHz, d6-DMSO): □ = | – | 100% | – | –
7 | CCS(=O)(=O)c1ccc(-n2cc(-c3cccc(Br)c3)cn2)nc1-c1nc2cc(C(F)(F)F)ncc2n1C [Example I-12] | – | 100% | 100% | 100% | Example I-12: logP (neutral): 4.48 ^1H-NMR(400.0 MHz, d6-DMSO): δ = | 90% | 100% | – | –
8 | CCS(=O)(=O)c1ccc(-n2ncn(-c3ccc(Br)cc3)c2=O)nc1-c1nc2cc(C(F)(F)F)ncc2n1C [Example I-16] | 80% | 100% | 100% | 100% | – | – | 100% | – | –
9 | CCS(=O)(=O)c1ccc(-n2cnc(-c3ccccn3)n2)nc1-c1nc2cc(C(F)(F)F)ncc2n1C [Example I-26] | – | – | – | 100% | Example I-26: logP (neutral): 2.43 1H-NMR(400.0 MHz, d6-DMSO): □ = | – | 100% | – | 90%
10 | CCS(=O)(=O)c1ccc(-n2nnn(-c3ccc(Cl)cc3)c2=O)nc1-c1nc2cc(C(F)(F)F)ncc2n1C [Example I-21] | – | 80% | 100% | 100% | Example I-21: logP (neutral): 3.71: 1H-NMR(400.0 MHz, d6-DMSO): □ = | – | 100% | – | –
